Target: SARS 3CL^pro (Severe acute respiratory syndrome coronavirus, UniProt P0C6U8)
Assay: biochemical
Set-up: species or system SARS-CoV

SMILES	Inhibition (%) (pH 7.5)	inhibition at 200 µM (pH 7.5)	IC50	3CL^pro inhibitory activity relative to EGCG (times higher)	Ki	Type of inhibition
Oc1cc(O)c2c(c1)O[C@H](c1cc(O)c(O)c(O)c1)[C@H](O)C2 [EGC, epigallocatechin]	5.4%	5%	–	–	–	–
O=C1c2c(O)cc(O)cc2O[C@H](c2cc(O)c(O)c(O)c2)[C@H]1O [AMPLS, ampelopsin]	–	> 30%	364 ± 8.7 µM	–	–	–
O=c1c(-c2ccc(O)cc2)coc2c([C@@H]3O[C@H](CO)[C@@H](O)[C@H](O)[C@H]3O)c(O)ccc12 [Puerarin, puerarin]	–	> 30%	381 ± 12.5 µM	–	–	–
O=c1c(O)c(-c2ccc(O)c(O)c2)oc2cc(O)cc(O)c12 [Quercetin]	–	> 80%	73 ± 4 µM	–	–	–
O=C(O[C@@H]1Cc2c(O)cc(O)cc2O[C@H]1c1cc(O)c(O)c(O)c1)c1cc(O)c(O)c(O)c1 [GCG, gallocatechin gallate]	–	> 80%	47 ± 0.9 µM	1.5 times	25 ± 1.7 µM	competitive inhibition pattern
O=c1c(-c2ccc(O)cc2)coc2cc(O)ccc12 [Daidzein, daidzein]	–	> 30%	351 ± 2.9 µM	–	–	–
